Assay results: patent publication US20130178475A1, “sGC STIMULATORS” (IRONWOOD PHARMACEUTICALS, INC., priority 2010, published 2013)

Target: T1, soluble guanylate cyclase (sGC) (Homo sapiens, UniProt Q02108+Q02153)
T1 construct: endogenously expressing soluble guanylate cyclase (sGC); endogenous in cells; host or cells: HEK293
T1 sequence (Q02153 1-619): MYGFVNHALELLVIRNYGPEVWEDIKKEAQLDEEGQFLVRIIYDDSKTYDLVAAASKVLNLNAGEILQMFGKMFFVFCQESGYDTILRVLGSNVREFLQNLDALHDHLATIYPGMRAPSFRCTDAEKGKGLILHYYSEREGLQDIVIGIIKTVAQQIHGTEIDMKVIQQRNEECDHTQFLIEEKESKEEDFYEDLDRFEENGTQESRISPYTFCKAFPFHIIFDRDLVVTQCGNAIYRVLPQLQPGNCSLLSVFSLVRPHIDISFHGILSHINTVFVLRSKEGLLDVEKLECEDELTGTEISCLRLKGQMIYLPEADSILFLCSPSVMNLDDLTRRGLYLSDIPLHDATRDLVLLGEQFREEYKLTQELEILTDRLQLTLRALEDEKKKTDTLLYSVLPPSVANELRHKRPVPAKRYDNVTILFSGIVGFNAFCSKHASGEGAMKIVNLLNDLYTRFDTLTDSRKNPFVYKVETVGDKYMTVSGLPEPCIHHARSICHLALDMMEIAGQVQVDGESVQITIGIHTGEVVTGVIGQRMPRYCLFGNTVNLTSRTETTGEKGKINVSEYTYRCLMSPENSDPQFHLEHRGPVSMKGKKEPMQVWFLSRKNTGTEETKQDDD
T1 sequence (Q02108 1-690): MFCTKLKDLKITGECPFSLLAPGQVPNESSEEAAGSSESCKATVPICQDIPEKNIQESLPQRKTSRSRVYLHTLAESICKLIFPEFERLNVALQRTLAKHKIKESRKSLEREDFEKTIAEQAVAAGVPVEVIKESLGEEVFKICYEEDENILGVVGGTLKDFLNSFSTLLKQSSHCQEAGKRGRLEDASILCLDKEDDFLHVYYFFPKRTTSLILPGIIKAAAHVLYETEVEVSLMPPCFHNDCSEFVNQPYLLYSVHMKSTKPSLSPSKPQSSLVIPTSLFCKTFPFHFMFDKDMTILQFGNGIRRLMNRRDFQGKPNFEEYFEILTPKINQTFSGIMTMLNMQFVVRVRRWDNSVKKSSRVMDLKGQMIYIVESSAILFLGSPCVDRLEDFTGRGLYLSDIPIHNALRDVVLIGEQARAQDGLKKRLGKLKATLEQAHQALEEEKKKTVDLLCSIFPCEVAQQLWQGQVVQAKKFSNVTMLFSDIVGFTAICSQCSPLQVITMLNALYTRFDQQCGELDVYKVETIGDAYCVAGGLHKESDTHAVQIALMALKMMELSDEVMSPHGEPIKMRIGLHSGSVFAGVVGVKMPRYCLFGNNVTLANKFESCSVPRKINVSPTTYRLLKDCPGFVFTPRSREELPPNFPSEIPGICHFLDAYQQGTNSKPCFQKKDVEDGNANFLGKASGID
Experiment: sGC-HEK-cGMP assay
Assay type: cell-based
Settings: HEK293 cells, 10 min incubation, intracellular cGMP by LC/MS; for Increase in cGMP Concentration Tested at 10 μM in HEK Assay: test compound 10 μM; for Increase in cGMP Concentration Tested at 30 μM in HEK Assay: test compound 30 μM
Procedure: Human embryonic kidney cells (HEK293), endogenously expressing soluble guanylate cyclase (sGC), were used to evaluate the activity of test compounds. Compounds stimulating the sGC receptor should cause an increase in the intracellular concentration of cGMP. […] Cells were then incubated for 15 minutes at 37° C. with 0.5 mM 3-isobutyl-1-methylxanthine (2004). Test article was then added to the assay mixture (2 μL) and incubated at 37° C. for 10 minutes. After the 10 minute incubation, the assay mixture was aspirated and 0.1M HCl (2004) was added to the cells. The plate was incubated at 4° C. for 30 minutes in the 0.1M HCl to stop the reaction and lyse the cells. The plates were then centrifuged at 1,200 g for 5 minutes at room temperature. Supernatants were collected and transferred to a new flat bottom 96 well plate for analysis. Vehicle controls were carried out using DMSO (1%). A known sGC stimulator, BAY 41-2272, was used as the positive control.
Samples were diluted with an equal volume of 1 M Ammonium Acetate (pH 7) to neutralize samples for better chromatography. A 2×cGMP standard curve was prepared in 0.1 M HCl and then diluted with an equal volume of 1 M Ammonium Acetate, with the following final concentrations in nM: 1024, 512, 256, 128, 64, 32, 16, 8, 4, 2, 1.
cGMP concentrations were determined from each sample using the LC/MS conditions (Table 2 below) and calculated standard curve. EC50 values were calculated from concentration-response curves generated with GraphPad Prism Software.

| SMILES | Increase in cGMP Concentration Tested at 10 μM in HEK Assay | Increase in cGMP Concentration Tested at 30 μM in HEK Assay |
| --- | --- | --- |
| O=C(c1ccncc1)N1CCc2c(c(-c3ncccn3)nn2Cc2ccccc2F)C1 [Compound I-55] | A (A represents no increase or an increase ranging from more than 0 fold to less than 5 fold) | A (A represents no increase or an increase ranging from more than 0 fold to less than 5 fold) |
| Nc1nc(-c2nn(Cc3ccccc3F)c3c2CCCC3)nc(N)c1N [Compound I-12] | A (A represents no increase or an increase ranging from more than 0 fold to less than 5 fold) | A (A represents no increase or an increase ranging from more than 0 fold to less than 5 fold) |
| CC1(C)CCc2c(c(-c3ncccn3)nn2Cc2ccccc2F)C1 [Compound I-17] | B (B represents an increase ranging from 5 fold to less than 10 fold) | A (A represents no increase or an increase ranging from more than 0 fold to less than 5 fold) |
| Nc1nc(-c2nn(Cc3ccccc3F)c3c2CCC3)nc(N)c1N [Compound I-35] | A (A represents no increase or an increase ranging from more than 0 fold to less than 5 fold) | A (A represents no increase or an increase ranging from more than 0 fold to less than 5 fold) |
| Fc1ccc(Cn2nc(-c3ncccn3)c3c2CCCC3)cc1 [Compound I-6] | A (A represents no increase or an increase ranging from more than 0 fold to less than 5 fold) | A (A represents no increase or an increase ranging from more than 0 fold to less than 5 fold) |
| Nc1nc(-c2nn(Cc3ccccc3F)c3c2CCC3)nc(N)c1/N=N/c1ccccc1 [Compound I-34] | A (A represents no increase or an increase ranging from more than 0 fold to less than 5 fold) | A (A represents no increase or an increase ranging from more than 0 fold to less than 5 fold) |
| CC1(C)CCCc2c(-c3ncccn3)nn(Cc3ccccc3F)c21 [Compound I-16] | A (A represents no increase or an increase ranging from more than 0 fold to less than 5 fold) | B (B represents an increase ranging from 5 fold to less than 10 fold) |
| Fc1ccccc1Cn1nc(-c2ncccn2)c2c1CCC2 [Compound I-2] | C (C represents an increase ranging from 10 fold to less than 20 fold) | D (D represents an increase ranging from 20 fold to less than 50 fold) |
| CC1(C)C=Cc2c(-c3ncccn3)nn(Cc3ccccc3F)c2C1 [Compound I-33] | A (A represents no increase or an increase ranging from more than 0 fold to less than 5 fold) | A (A represents no increase or an increase ranging from more than 0 fold to less than 5 fold) |
| N#Cc1ccccc1Cn1nc(-c2ncccn2)c2c1CCCC2 [Compound I-8] | C (C represents an increase ranging from 10 fold to less than 20 fold) | D (D represents an increase ranging from 20 fold to less than 50 fold) |
| Nc1nc(N)nc(-c2nn(Cc3ccccc3F)c3c2CCC3)n1 [Compound I-4] | A (A represents no increase or an increase ranging from more than 0 fold to less than 5 fold) | A (A represents no increase or an increase ranging from more than 0 fold to less than 5 fold) |
| Fc1ccccc1Cn1nc(-c2cncnc2)c2c1CCCC2 [Compound I-47, 1-(2-fluorobenzyl)-3-(pyrimidin-5-yl)-4,5,6,7-tetrahydro-1H-indazole] | A (A represents no increase or an increase ranging from more than 0 fold to less than 5 fold) | A (A represents no increase or an increase ranging from more than 0 fold to less than 5 fold) |
| CC1(C)Cc2c(c(-c3ncccn3)nn2Cc2ccccc2F)C(O)C1 (stereo not shown) [Compound I-32] | A (A represents no increase or an increase ranging from more than 0 fold to less than 5 fold) | A (A represents no increase or an increase ranging from more than 0 fold to less than 5 fold) |
| N#Cc1cccc(Cn2nc(-c3ncccn3)c3c2CCCC3)c1 [Compound I-9] | A (A represents no increase or an increase ranging from more than 0 fold to less than 5 fold) | B (B represents an increase ranging from 5 fold to less than 10 fold) |
| c1cnc(-c2nn(Cc3cccc4ccccc34)c3c2CCCC3)nc1 [Compound I-11] | A (A represents no increase or an increase ranging from more than 0 fold to less than 5 fold) | A (A represents no increase or an increase ranging from more than 0 fold to less than 5 fold) |
| O=C1CCCc2c1c(-c1ncccn1)nn2Cc1ccccc1F [Compound I-21] | A (A represents no increase or an increase ranging from more than 0 fold to less than 5 fold) | A (A represents no increase or an increase ranging from more than 0 fold to less than 5 fold) |
| CC1(C)C=Cc2c1c(-c1nccc(N)n1)nn2Cc1ccccc1F [Compound I-28] | B (B represents an increase ranging from 5 fold to less than 10 fold) | C (C represents an increase ranging from 10 fold to less than 20 fold) |
| O=S(=O)(c1ccccc1)N1CCc2c(c(-c3ncccn3)nn2Cc2ccccc2F)C1 [Compound I-53, 1-(2-fluorobenzyl)-5-(phenylsulfonyl)-3-(pyrimidin-2-yl)-4,5,6,7-tetrahydro-1H-pyrazolo[4,3-c]pyridine] | A (A represents no increase or an increase ranging from more than 0 fold to less than 5 fold) | A (A represents no increase or an increase ranging from more than 0 fold to less than 5 fold) |
| O=C(c1cccnc1)N1CCc2c(c(-c3ncccn3)nn2Cc2ccccc2F)C1 [Compound I-54] | A (A represents no increase or an increase ranging from more than 0 fold to less than 5 fold) | A (A represents no increase or an increase ranging from more than 0 fold to less than 5 fold) |
| Fc1ccccc1Cn1nc(-c2cccnc2)c2c1CCCC2 [Compound I-48, 1-(2-fluorobenzyl)-3-(pyridin-3-yl)-4,5,6,7-tetrahydro-1H-indazole] | A (A represents no increase or an increase ranging from more than 0 fold to less than 5 fold) | A (A represents no increase or an increase ranging from more than 0 fold to less than 5 fold) |
